Assay results: patent publication US6110962A, “11-aryl-benzo[B]naphtho[2,3-D]furans and 11-aryl-benzo[B]naphtho[2,3-D]thiophenes useful in the treatment of insulin resistance and hyperglycemia” (American Home Products Corporation, priority 1999, dated 2000)
Counter-ions that a name gives are not always drawn.

Assays:
Human recombinant PTP1B = target: T1, Human recombinant PTP1B (Homo sapiens, UniProt P18031); format: biochemical; details: read-out: IC50
T1 construct: made in house
T1 sequence (P18031 1-435): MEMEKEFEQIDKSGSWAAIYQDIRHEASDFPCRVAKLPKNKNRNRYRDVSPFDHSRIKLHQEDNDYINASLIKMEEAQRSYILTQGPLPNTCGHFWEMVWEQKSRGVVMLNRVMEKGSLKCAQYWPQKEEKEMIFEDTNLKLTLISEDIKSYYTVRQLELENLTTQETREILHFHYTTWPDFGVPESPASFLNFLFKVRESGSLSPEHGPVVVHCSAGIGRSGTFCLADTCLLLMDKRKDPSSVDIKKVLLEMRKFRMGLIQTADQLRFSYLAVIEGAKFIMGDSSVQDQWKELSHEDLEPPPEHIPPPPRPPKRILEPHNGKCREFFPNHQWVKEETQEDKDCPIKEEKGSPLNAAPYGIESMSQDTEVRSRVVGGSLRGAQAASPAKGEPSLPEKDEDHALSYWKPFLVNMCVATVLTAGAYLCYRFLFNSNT

[1] = system: rat hepatic microsomal PTPases; details: PTPase activity, compound at 50 μM

| SMILES | IC50 (Human recombinant PTP1B) [nM] | % Change from Control [1] [%] |
| --- | --- | --- |
| Oc1c(Br)cc(-c2c3ccccc3c(Br)c3oc4ccccc4c23)cc1Br [Example 210, 2,6-Dibromo-4-(6-bromo-benzo[b]naphtho[2,3-d]furan-11ly)-phenol] | 1060 | -51.55 |
| N#Cc1cc(-c2c3ccccc3cc3sc4ccccc4c23)cc(C#N)c1OCC(=O)O [Example 81, [(4-Benzo[b]naphtho[2,3-d]thiophen-11-yl)-2,6-dicyano-phenoxy]-acetic acid] | 1990 | -47.69 |
| CC(C)c1cc(-c2c3ccccc3c(Br)c3sc4ccccc4c23)cc(C(C)C)c1O [Example 40, 4-(6-Bromo-benzo[b]naphtho[2,3-d]thiophen-11-yl)-2,6-diisopropyl-phenol] | 1100 | -1.40 |
| CC(=O)Oc1ccc(-c2c3ccccc3c(Br)c3sc4ccccc4c23)cc1 [Example 37, 4-(6-Bromo-benzo[b]naphtho[2,3-d]thiophen-11-yl-phenol)acetate(ester)] | 1180 | -3.02 |
| Oc1cc(Br)c(-c2c3ccccc3c(Br)c3sc4ccccc4c23)cc1O [Example 71, 4-Bromo-5-(6-bromo-benzo[b]naphtho[2,3-d]thiophen-11-yl)-benzene-1,2-diol] | 79 | -35.74 |
| Brc1cc(-c2c3ccccc3c(Br)c3sc4ccccc4c23)cc(Br)c1OCc1nnn[nH]1 [Example 171, 5-[2,6-Dibromo-4-(6-bromo-benzo[b]naphtho[2,3-d]thiophen-11-yl)-phenoxymethyl]-1 H-tetrazole] | 302 | -71.04 |
| Oc1c(F)ccc(-c2c3ccccc3c(Br)c3sc4ccccc4c23)c1F [Example 200, 3-(6-Bromo-benzo[b]naphtho[2,3-d]thiophen-11-yl)-2,6 difluoro-phenol] | 1170 | -50.62 |
| COc1c(Br)cc(-c2c3ccccc3c(Br)c3sc4ccccc4c23)cc1O[C@H](Cc1ccccc1)C(=O)O [Example 196, (R)-2-[3-Bromo-5-(6-bromo-benzo[b]naphtho[2,3-d]thiophen-11-yl)-2-methoxy-phenoxy]-3-phenyl-propionic acid] | 174 | -80.08 |
| O=C(O)[C@H](CCc1ccccc1)Oc1c(Br)cc(-c2c3ccccc3c(Br)c3sc4ccccc4c23)cc1Br [Example 118] | 31 | -82.00 |
| Oc1c(Br)cc(-c2c3ccccc3c(I)c3sc4ccccc4c23)cc1Br [Example 59, 2,6-Dibromo-4-(6-iodo-benzo[b]naphtho[2,3-d]thiophen-11-yl)-phenol] | 612 | -35.46 |
| O=C(O)COc1cc(-c2c3ccccc3c(Br)c3sc4ccccc4c23)ccc1Br [Example 91, [2-Bromo-5-(6-bromo-benzo[b]naphtho[2,3-d]thiophen-11-yl)-phenoxyl]-acetic acid] | 1300 | -97.10 |
| COc1c2ccccc2c(-c2cc(Br)c(O)c(Br)c2)c2c1sc1ccccc12 [Example 63] | 904 | -47.53 |
| O=C(O)[C@@H](Cc1ccccc1)Oc1c(Br)cc(-c2c3ccccc3c(Sc3ccncc3)c3sc4ccccc4c23)cc1Br [Example 134, (R)-2-{2,6-Dibromo-4-[6-(pyridin-4-ylsulfanyl)-benzo[b]naphtho[2,3-d]thiophen-11-yl]-phenoxy}-3-phenyl-propionic acid] | 93 | -69.86 |
| O=C(O)[C@H](Cc1ccccc1)Oc1ccc(-c2c3ccccc3c(Br)c3sc4ccccc4c23)cc1 [Example 114, (S)-2-[4-(6-bromo-benzo[b]naphtho[2,3-d]thiophen-11-yl)-phenoxy]-3-phenyl-propionic acid] | 589 | -68.03 |
| O=C(O)[C@@H](Cc1c[nH]cn1)Oc1c(Br)cc(-c2c3ccccc3c(Br)c3sc4ccccc4c23)cc1Br [Example 120, (R)-2-[2,6-Dibromo-4-(6-bromo-benzo[b]naphtho[2,3-d]thiophen-11-yl)-phenoxy]-3-(1 H-imidazol-4-yl)-propionic acid, hydrochloride] | 541 | -17.35 |
| O=C(O)C[C@@H](Oc1c(Br)cc(-c2c3ccccc3c(Br)c3sc4ccccc4c23)cc1Br)C(=O)O [Example 152, (R)-2-[2,6-Dibromo-4-(6-bromo-benzo[b]naphtho[2,3-d]thiophen-11-yl)-phenoxy]-succinic acid] | 994 | -95.22 |
| COC(=O)[C@H](Cc1ccccc1)Oc1c(Br)cc(-c2c3ccccc3c(Br)c3sc4ccccc4c23)cc1Br [Example 110, (S)-2-[2,6-Dibromo-4-(6-bromo-benzo[b]naphtho[2,3-d]thiophen-11-yl)-phenoxy]-3-phenyl-propionic acid, methyl ester] | 1520 | -12.78 |

| SMILES | IC50 (Human recombinant PTP1B) [nM] | % Change from Control [1] [%] |
| --- | --- | --- |
| CC(C)(Oc1c(Br)cc(-c2c3ccccc3c(Br)c3sc4ccccc4c23)cc1Br)C(=O)O [Example 178, 2-[2,6-Dibromo-4-(6-bromo-benzo[b]naphtho[2,3-d]thiophen-11-yl)-phenoxy]-2-methyl-propionic acid] | 480 | -42.41 |
| Oc1ccc(-c2c3ccccc3c(Br)c3sc4ccccc4c23)cc1O [Example 43, 4-(6-bromo-benzo[b]naphtho[2,3-d]thiophen-11-yl)-benzene-1,2-diol] | 189 | -14.62 |
| O=C(O)C(Cc1ccc2ccccc2c1)Oc1c(Br)cc(-c2c3ccccc3c(Br)c3sc4ccccc4c23)cc1Br (centres unmarked) [Example 156, 2-[2,6-Dibromo-4-(6-bromo-benzo[b]naphtho[2,3-d]thiophen-11-yl)-phenoxy]-3-naphthalen-2yl-propionic acid] | 26 | -71.12 |
| NC(=O)[C@@H](Cc1ccccc1)Oc1c(Br)cc(-c2c3ccccc3c(Br)c3sc4ccccc4c23)cc1Br [Example 166] | 565 | -26.86 |
| Oc1cccc(-c2c3ccccc3c(Br)c3sc4ccccc4c23)c1 [Example 42, 3-(6-Bromo-benzo[b]naphtho[2,3-d]thiophen-11-yl)-phenol] | 1500 | -21.28 |
| Cc1c2ccccc2c(-c2cc(Br)c(O)c(Br)c2)c2c1sc1ccccc12 [Example 62, 2,6-Dibromo-4-(6-methyl-benzo[b]naphtho[2,3-d]thiophen-11-yl)-phenol] | 654 | -40.14 |
| Oc1ccc(-c2c3ccccc3cc3sc4ccccc4c23)cc1O [Example 18, 4-(Benzo[b]naphtho[2,3-d]thiophen-11-yl)-benzene-1,2-diol] | 554 | -15.22 |
| Oc1cc(-c2c3ccccc3c(Br)c3sc4ccccc4c23)ccc1Br [Example 68, 2-Bromo-5-(6-bromo-benzo[b]naphtho[2,3-d]thiophen-11-yl)-phenol] | 1020 | -26.32 |
| O=C(O)COc1cc(-c2c3ccccc3c(Br)c3sc4ccccc4c23)c(Br)cc1Br [Example 92, [2,4-Dibromo-5-(6-bromo-benzo[b]naphtho[2.3-d]thiophen-1-yl)-phenoxyl]-acetic acid] | 644 | -98.16 |
| N#CCCNC(=O)[C@@H](Cc1ccccc1)Oc1c(Br)cc(-c2c3ccccc3c(Br)c3sc4ccccc4c23)cc1Br [Example 168] | 994 | -17.85 |
| Cc1c2ccccc2c(-c2cc(Br)c(O[C@H](Cc3ccccc3)C(=O)O)c(Br)c2)c2c1sc1ccccc12 [Example 141] | 126 | -76.58 |
| O=C(O)[C@@H](Cc1ccccc1)Oc1c(Cl)cc(-c2c3ccccc3c(Br)c3sc4ccccc4c23)cc1Cl [Example 130, (R)-2-[2,6-Dichloro-4-(6-bromo-benzo[b]naphtho[2,3-d]thiophen-11-yl)-phenoxy]l-3-phenyl-propionic acid] | 800 | -72.14 |
| C[C@H](CC(=O)O)Oc1c(Br)cc(-c2c3ccccc3c(Br)c3sc4ccccc4c23)cc1Br [Example 180] | 384 | -50.64 |
| O=C(O)CCOc1c(Br)cc(-c2c3ccccc3c(Br)c3sc4ccccc4c23)cc1Br [Example 179] | 203 | -66.27 |
| O=C(O)C(Cc1cccnc1)Oc1c(Br)cc(-c2c3ccccc3c(Br)c3sc4ccccc4c23)cc1Br (centres unmarked) [Example 137, 2-[2,6-Dibromo-4-(6-bromo-benzo[b]naphtho[2,3-d]thiophen-11-yl)-phenoxy]-3-pyridin-3-yl-propionic acid] | 341 | -64.92 |
| O=P(O)(O)COc1c(Br)cc(-c2c3ccccc3c(Br)c3sc4ccccc4c23)cc1Br [Example 162, [2,6-Dibromo-4-(6-bromo-benzo[b]naphtho[2,3-d]thiophen-11-yl)-phenoxymethyl]-phosphonic acid] | 145 | -60.67 |
| CC(C)c1cc(-c2c3ccccc3c(Br)c3sc4ccccc4c23)cc(C(C)C)c1O[C@H](C)C(=O)O [Example 140, (R)-2-[4-(6-Bromo-benzo[b]naphtho[2,3-d]thiophen-11-yl)-2,6-diisopropyl-phenoxy)-propionic acid] | 204 | -71.19 |
